Key:
hMAO-A = target: T1, hMAO-A (Homo sapiens, UniProt P21397); assay: Inhibition of recombinant hMAO-A, kynuramine substrate, continuous absorbance method; details: for remaining activity at 10 µM: read-out: Residual Activity at 10 µM (%) MAO-A
T1 sequence (P21397 1-527): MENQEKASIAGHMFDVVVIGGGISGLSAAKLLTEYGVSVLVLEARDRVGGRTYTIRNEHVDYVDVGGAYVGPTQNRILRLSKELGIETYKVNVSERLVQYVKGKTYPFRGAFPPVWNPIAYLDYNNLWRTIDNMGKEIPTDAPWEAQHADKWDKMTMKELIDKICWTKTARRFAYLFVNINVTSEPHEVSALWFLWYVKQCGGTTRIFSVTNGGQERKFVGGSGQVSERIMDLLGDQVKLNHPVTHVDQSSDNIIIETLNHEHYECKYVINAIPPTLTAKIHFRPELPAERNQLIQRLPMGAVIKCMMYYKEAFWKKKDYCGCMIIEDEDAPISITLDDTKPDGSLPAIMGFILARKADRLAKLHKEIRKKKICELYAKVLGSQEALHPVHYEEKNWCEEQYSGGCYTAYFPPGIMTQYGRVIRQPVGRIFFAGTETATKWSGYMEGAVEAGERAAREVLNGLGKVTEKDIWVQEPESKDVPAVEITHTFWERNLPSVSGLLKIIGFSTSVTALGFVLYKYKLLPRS

MAO-B [1] = target: T2, MAO-B (Homo sapiens, UniProt P27338); assay: Reversibility of MAO-B inhibition by dialysis; format: biochemical; design: purchased Sigma-Aldrich; details: for Reversibility of MAO-B inhibition: dialysis, compared with safinamide and pargyline
T2 sequence (P27338 1-520): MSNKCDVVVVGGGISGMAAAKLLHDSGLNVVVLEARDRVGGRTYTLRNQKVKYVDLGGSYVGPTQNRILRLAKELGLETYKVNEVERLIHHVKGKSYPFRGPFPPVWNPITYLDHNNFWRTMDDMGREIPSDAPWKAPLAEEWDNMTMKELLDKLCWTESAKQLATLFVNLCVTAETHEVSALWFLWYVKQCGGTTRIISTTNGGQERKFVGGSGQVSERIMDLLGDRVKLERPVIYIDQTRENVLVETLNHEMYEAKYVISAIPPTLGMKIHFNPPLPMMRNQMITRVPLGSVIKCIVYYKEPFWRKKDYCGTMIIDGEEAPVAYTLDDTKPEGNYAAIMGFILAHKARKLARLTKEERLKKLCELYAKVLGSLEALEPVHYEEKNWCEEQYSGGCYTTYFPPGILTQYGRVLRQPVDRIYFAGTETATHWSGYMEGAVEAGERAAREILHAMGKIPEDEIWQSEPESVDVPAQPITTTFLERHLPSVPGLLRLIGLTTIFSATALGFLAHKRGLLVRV

MAO-B [2] = target: T2, MAO-B; assay: biochemical; details: for remaining activity at 10 µM: read-out: Residual Activity at 10 µM (%) MAO-B
[3] = PAMPA for blood-brain barrier permeation; format: in vitro ADME; details: for Experimental Pe / Papp: PAMPA-BBB, pH 7.4; for Papp: read-out: Experimental Pe; for Prediction (BBB permeation class): class from Pe
MAO-B [4] = target: T2, MAO-B; assay: MAO-B inhibition kinetics (Lineweaver-Burk and secondary plots); format: biochemical; design: purchased Sigma-Aldrich; details: for Type of MAO-B inhibition: LB plots, five substrate and three inhibitor concentrations; for Ki: secondary plot of LB slopes, benzylamine substrate
MAO-B [5] = details: cited from earlier work
MAO-B [6] = target: T2, MAO-B; details: ratio of IC50 values within the S series

Compound | remaining activity at 10 µM (hMAO-A) [%] | remaining activity at 10 µM (MAO-B [2]) [%] | IC50 (hMAO-A) [µM] | IC50 (MAO-B [2]) [µM] | also measured
C[C@H](NCc1ccc(OCc2cccc(F)c2)cc1)C(N)=O [Safinamide, reference compound] | 69 ± 1.36 | -15.6 ± 0.86 | – | – | activity (MAO-B [1]; about 2.0 times IC50 (S5 0.4 μM, S16 2.0 μM), 30 min pre-incubation, read-out: Residual MAO-B activity before recovery, undialyzed (AU)): 28.3%
N#Cc1ccccc1C=NNC(=O)Cn1nc(N2CCC(Cc3ccccc3)CC2)ccc1=O [Compound S16, N′-2-cyanobenzylidene-2-(3-(4-benzylpiperidin-1-yl)-6-oxopyridazin-1(6H)-yl)acetohydrazide] | 33.2 ± 9.25 | -12.9 ± 1.14 | 6.15 ± 0.305 | 0.979 ± 0.206 | Reversibility of MAO-B inhibition (MAO-B [1]): reversible; Experimental Pe [3]: 3.78 ×10⁻⁶ cm/s; Papp [3]: 3.78 ± 0.2 ×10⁻⁶ cm/s; Type of MAO-B inhibition (MAO-B [4]): competitive; Ki (MAO-B [4]): 0.721 ± 0.074 µM
C#CCN(C)[C@H](C)Cc1ccccc1 [Selegiline, reference compound] | – | – | – | – | Prediction (BBB permeation class) [3]: CNS+ (Pe (10^−6 cm·s^−1) > 4.00: CNS+ (high permeation))
Cc1ccccc1C=NNC(=O)Cn1nc(N2CCC(Cc3ccccc3)CC2)ccc1=O [Compound S9, N′-2-methylbenzylidene-2-(3-(4-benzylpiperidin-1-yl)-6-oxopyridazin-1(6H)-yl)acetohydrazide] | 23.2 ± 1.2 | 32.9 ± 5.19 | 4.51 ± 0.589 | 7.24 ± 0.994 | –
COc1cc(C=NNC(=O)Cn2nc(N3CCC(Cc4ccccc4)CC3)ccc2=O)cc(OC)c1OC [Compound S23, N′-3,4,5-trimethoxybenzylidene-2-(3-(4-benzylpiperidin-1-yl)-6-oxopyridazin-1(6H)-yl)acetohydrazide] | 78.79 ± 0.3 | 53.1 ± 2.67 | 28.4 ± 2.95 | 10.9 ± 0.405 | –
COc1cc(C=NNC(=O)Cn2nc(N3CCC(Cc4ccccc4)CC3)ccc2=O)cc(OC)c1 [Compound S20, N′-3,5-dimethoxybenzylidene-2-(3-(4-benzylpiperidin-1-yl)-6-oxopyridazin-1(6H)-yl)acetohydrazide] | 68 ± 4.21 | 11.7 ± 2.41 | 19 ± 2.71 | 3.63 ± 0.142 | –
O=C(Cn1nc(N2CCC(Cc3ccccc3)CC2)ccc1=O)NN=Cc1cccc(F)c1 [Compound S7, N′-3-fluorobenzylidene-2-(3-(4-benzylpiperidin-1-yl)-6-oxopyridazin-1(6H)-yl)acetohydrazide] | 12.8 ± 7.24 | 1.03 ± 4.63 | 4.74 ± 0.624 | 1.711 ± 0.009 | –
O=C(Cn1nc(N2CCC(Cc3ccccc3)CC2)ccc1=O)NN=Cc1ccc(F)cc1 [Compound S8] | 22.4 ± 3.07 | 31.9 ± 2.62 | 7.99 ± 1.28 | 5.37 ± 0.123 | –
O=C(Cn1nc(N2CCC(Cc3ccccc3)CC2)ccc1=O)NN=Cc1ccccc1 [Compound S1] | 63.4 ± 2.24 | 36.5 ± 8.32 | 16.47 ± 0.047 | 7.05 ± 0.086 | –
O=C(Cn1nc(N2CCOCC2)ccc1=O)NN=Cc1ccc(Cl)cc1 [TR16] | – | – | – | – | IC50 (MAO-B [5]): 0.17 µM
O=C(Cn1nc(N2CCC(Cc3ccccc3)CC2)ccc1=O)NN=Cc1cccc(Cl)c1 [Compound S5, N′-3-chlorobenzylidene-2-(3-(4-benzylpiperidin-1-yl)-6-oxopyridazin-1(6H)-yl)acetohydrazide] | 25.6 ± 3.85 | -24.6 ± 8.51 | 3.86 ± 0.77 | 0.203 ± 0.004 | Reversibility of MAO-B inhibition (MAO-B [1]): reversible; Times higher MAO-B inhibition than other derivatives (MAO-B [6]): 4.82–53.94 times; Experimental Pe [3]: 5.75 ×10⁻⁶ cm/s; Papp [3]: 5.75 ± 0.13 ×10⁻⁶ cm/s; Prediction (BBB permeation class) [3]: CNS+ (Pe (10^−6 cm·s^−1) > 4.00: CNS+ (high permeation)); Type of MAO-B inhibition (MAO-B [4]): competitive; Ki (MAO-B [4]): 0.155 ± 0.05 µM
COc1ccc(C=NNC(=O)Cn2nc(N3CCC(Cc4ccccc4)CC3)ccc2=O)cc1 [Compound S12] | 7.71 ± 8.25 | 38.46 ± 0.36 | 4.642 ± 0.001 | 6.463 ± 0.035 | –
O=C(Cn1nc(N2CCC(Cc3ccccc3)CC2)ccc1=O)NN=Cc1cccc(Br)c1 [Compound S4, N′-3-bromobenzylidene-2-(3-(4-benzylpiperidin-1-yl)-6-oxopyridazin-1(6H)-yl)acetohydrazide] | 56.9 ± 9.78 | 33.5 ± 2.5 | 27 ± 0.797 | 6.17 ± 0.155 | –
COc1ccc(C=NNC(=O)Cn2nc(N3CCC(Cc4ccccc4)CC3)ccc2=O)c(OC)c1 [Compound S24, N′-2,4-dimethoxybenzylidene-2-(3-(4-benzylpiperidin-1-yl)-6-oxopyridazin-1(6H)-yl)acetohydrazide] | 20.7 ± 1.34 | 54.7 ± 3.76 | 4.13 ± 0.107 | 10.7 ± 2.48 | –

Source: article PMC11243598, “Inhibition of Monoamine Oxidases by Pyridazinobenzylpiperidine Derivatives” (Molecules, 2024)
